ChEMBL document CHEMBL5512658, “Development of benzimidazole-based compounds as novel capsid assembly modulators for the treatment of HBV infection” (Eur J Med Chem, 2024)
Activity calls are given as the source filed them. No cut-off for these calls is given here.

What was measured:
Core antigen = Core antigen (Hepatitis B virus, UniProt Q03732); assay: Inhibition of Hepatitis B virus core protein expressed in HBC cells derived from HEK293T cells assessed as reduction in HBcAg level incubated for 6 hrs by Nano-glo luciferase assay; assay type: cell-based
Chain of Core antigen (Q03732 whole entry): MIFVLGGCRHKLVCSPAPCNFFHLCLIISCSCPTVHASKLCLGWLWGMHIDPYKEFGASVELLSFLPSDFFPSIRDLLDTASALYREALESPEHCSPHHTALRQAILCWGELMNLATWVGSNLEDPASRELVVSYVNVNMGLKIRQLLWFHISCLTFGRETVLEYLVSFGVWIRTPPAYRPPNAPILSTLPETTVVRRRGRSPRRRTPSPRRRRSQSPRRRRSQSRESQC

HepG2 = assay: Cytotoxicity against human HepG2 cells measured after 3 days by resazurin staining based analysis; assay type: functional; conditions: HepG2, 72 h, time 3 day
[1] = system: Hepatitis B virus core protein; assay: Selectivity index, ratio of CC50 for human HepG2 cells to IC50 for Hepatitis B virus core protein expressed in HEK293T cells; assay type: toxicity, cell-based; conditions: read-out: Ratio CC50/IC50
Hepatitis B virus [2] = assay: Antiviral activity against HBV infected in human HePAD38 cells assessed as reduction HBV capsid level at 5 uM media replaced for every 2 to 3 days incubated for 7 days by Western blot analysis; assay type: functional, organism-based; conditions: time 7.0 day
Hepatitis B virus [3] = assay: Antiviral activity against HBV infected in human HePAD38 cells assessed as inhibition of HBV capsid assembly by measuring secretion of particles containing HBV DNA at 5 uM incubated for 7 days by Southern blot analysis; assay type: functional, organism-based; conditions: time 7.0 day
Hepatitis B virus [4] = assay: Antiviral activity against HBV infected in human HePAD38 cells assessed as reduction in intracellular core HBV DNA level media replaced for every 2 to 3 days incubated for 7 days by Western blot analysis; assay type: functional, organism-based

SMILES | IC50 (Core antigen; read-out: IC50) [µM] | CC50 (HepG2) [µM] | selectivity ratio [1] | Activity (Hepatitis B virus [2]) | Activity (Hepatitis B virus [3]) | IC50 (Core antigen; hbc) | EC50 (Hepatitis B virus [4]) [µM]
COc1ccc(S(=O)(=O)c2nc3ccccc3[nH]2)cc1 | 26.9 | 65.2 | 2.42 | – | – | – | –
Fc1cc(F)cc(Sc2nc3ccccc3[nH]2)c1 | 19.7 | > 100 | > 5.07 | – | – | – | –
COc1ccc(Cc2nc3ccccc3n2C2CCC2)cc1 | 27.2 | 89.6 | 3.29 | – | – | – | –
Clc1ccc(Sc2nc3ccccc3[nH]2)cc1Cl | 11.1 | > 100 | > 9.03 | – | – | – | –
COc1ccc(Cc2nc3ccccc3n2-c2ccccc2)cc1 | 52.9 | 14.2 | – | – | – | – | –
COCC(O)Cn1c(Cc2ccc(OC)cc2)nc2ccccc21 (configuration not stated) | 3.32 | > 100 | > 30.1 | – | – | – | –
Fc1ccc(Sc2nc3ccccc3[nH]2)cc1 | 12 | 13.3 | 1.11 | – | – | – | –
COc1ccc(Cc2nc3ccccc3n2CCO)cc1 | 2.37 | > 100 | > 42.2 | Active | Active | – | –
COCC(Cn1c(Cc2ccc(OC)cc2)nc2ccccc21)OC (configuration not stated) | 19.8 | > 100 | > 5.06 | – | – | – | –
Fc1cccc(Sc2nc3ccccc3[nH]2)c1 | – | > 100 | – | – | – | Not Active | –
COc1ccc(C2(c3nc4ccccc4[nH]3)CC2)cc1 | 21.8 | > 100 | > 4.58 | – | – | – | –
COc1ccc(Cc2nc3ccccc3n2CCCO)cc1 | 4.17 | > 100 | > 24 | – | Active | – | –
COc1ccc(Cc2nc3ccccc3n2CCCNc2ccccc2)cc1 | 1.26 | 12.3 | 9.73 | – | – | – | –
COc1ccc(Cc2nc3ccccc3n2CCCCc2ccccc2)cc1 | 27.7 | 44.6 | 1.61 | – | – | – | –
CCCCn1c(Cc2ccc(OC)cc2)nc2ccccc21 | 6.48 | > 100 | > 15.4 | – | – | – | –
CCc1ccc(Sc2nc3ccccc3[nH]2)cc1 | 3.93 | 17.2 | 4.37 | – | – | – | –
COc1ccc(Oc2nc3ccccc3[nH]2)cc1 | – | > 100 | – | – | – | Not Active | –
OCCn1c(Sc2ccc(Cl)cc2)nc2ccccc21 | 3.6 | 50.7 | 14.1 | – | – | – | 6.37
CCc1ccc(Sc2nc3ccccc3n2CCO)cc1 | 4.5 | 82.8 | 18.4 | – | – | – | –
COc1ccc(Cc2nc3ccccc3n2CCCCCCO)cc1 | 3.36 | 30.3 | 9.02 | Active | – | – | –
COc1ccc(Cc2nc3ccccc3n2C[C@H](O)COc2ccccc2)cc1 | 2.46 | 15.2 | 6.18 | – | – | – | –
COc1ccc(Cc2nc3ccccc3n2CCCOC(C)=O)cc1 | 14 | > 100 | > 7.15 | – | Active | – | –
Clc1cccc(Sc2nc3ccccc3[nH]2)c1 | 26.5 | > 100 | > 3.77 | – | – | – | –
COc1ccc(Sc2nc3ccccc3n2C(C)=O)cc1 | 12 | > 100 | > 8.37 | – | – | – | –
COc1ccc(CCCc2nc3ccccc3[nH]2)cc1 | 22.8 | 47 | 2.06 | Active | Active | – | –
CCCn1c(Cc2ccc(OC)cc2)nc2ccccc21 | 11.4 | > 100 | > 8.79 | – | – | – | –

SMILES | IC50 (Core antigen; read-out: IC50) [µM] | CC50 (HepG2) [µM] | selectivity ratio [1] | Activity (Hepatitis B virus [2]) | Activity (Hepatitis B virus [3]) | IC50 (Core antigen; hbc) | EC50 (Hepatitis B virus [4]) [µM]
COc1ccc(Cc2nc3ccccc3n2C)cc1 | 4.85 | 22.1 | 4.55 | Active | Active | – | –
COCCCn1c(Cc2ccc(OC)cc2)nc2ccccc21 | 9.65 | > 100 | > 10.4 | Active | Active | – | –
COc1ccc(Cc2nc3ccccc3n2C(C)C)cc1 | 41.5 | 37.1 | 0.96 | – | – | – | –
CCCCCn1c(Cc2ccc(OC)cc2)nc2ccccc21 | 7.63 | 46.5 | 6.1 | – | – | – | –
COc1ccc(Cc2nc3ccccc3n2CC(O)COc2ccccc2)cc1 (configuration not stated) | 1.99 | 12.3 | 6.18 | – | – | – | 0.07
COc1ccc(Cc2nc3ccccc3n2CCCBr)cc1 | 7.85 | 26.2 | 3.34 | – | – | – | –
CCn1c(Cc2ccc(OC)cc2)nc2ccccc21 | 4.51 | 29.5 | 6.55 | – | – | – | –
Cc1ccc(Sc2nc3ccccc3[nH]2)cc1 | 6.81 | 61 | 8.96 | – | – | – | –
COc1ccc(CCc2nc3ccccc3[nH]2)cc1 | 34.3 | > 100 | > 2.91 | Active | Active | – | –
COc1ccc(Cc2nc3ccccc3n2CCCOc2ccccc2)cc1 | 1.25 | 12.7 | 10.2 | – | – | – | –
OCCn1c(Sc2cccc(F)c2)nc2ccccc21 | 49.3 | > 100 | > 2.03 | – | – | – | –
CCOC(=O)n1c(Cc2ccc(OC)cc2)nc2ccccc21 | 2.18 | 44.2 | 20.3 | Active | Active | – | –
COc1ccc(Nc2nc3ccccc3[nH]2)cc1 | 6.13 | 65.6 | 10.7 | – | – | – | –
COc1ccc(Cc2nc3ccccc3n2CCCOc2cccnc2)cc1 | 1.21 | 13.4 | 11.1 | – | – | – | –
Clc1ccc(Sc2nc3ccccc3[nH]2)cc1 | 2.94 | 13.7 | 4.65 | – | – | – | –
COc1ccc(Cc2nc3ccccc3n2CC(=O)COc2ccccc2)cc1 | 3.67 | 10.2 | 2.79 | – | – | – | –
OCCn1c(Sc2ccc(F)cc2)nc2ccccc21 | 22.2 | 84.7 | 3.82 | – | – | – | –
OCCn1c(Sc2ccc(Cl)c(Cl)c2)nc2ccccc21 | 7 | > 100 | > 14.3 | – | – | – | –
COc1ccc([S+]([O-])c2nc3ccccc3[nH]2)cc1 (configuration not stated) | 36.5 | 34 | 0.93 | – | – | – | –
COc1ccc(Cc2nc3ccccc3n2CC(O)CO)cc1 (configuration not stated) | 3.07 | > 100 | > 32.6 | – | – | – | –
CCOC(=O)Cn1c(Cc2ccc(OC)cc2)nc2ccccc21 | 9.41 | 22.1 | 2.35 | – | – | – | –
Brc1ccc(Sc2nc3ccccc3[nH]2)cc1 | 1.8 | 13.9 | 7.73 | – | – | – | –
COc1ccc(Cc2nc3ccccc3n2C[C@@H](O)COc2ccccc2)cc1 | 2.41 | 9.72 | 4.03 | – | – | – | –
COc1ccc(Cc2nc3ccccc3n2CCCCO)cc1 | 2.45 | 34.4 | 14.1 | Active | Active | – | –
COc1ccc(Cc2nc3ccccc3o2)cc1 | 36.3 | > 100 | > 2.76 | – | – | – | –
COc1ccc(Sc2nc3ccccc3n2C)cc1 | 5.68 | 25.8 | 4.54 | – | – | – | –
